Values joined by “and” are separate entries in the source; they are usually repeats but may differ in a detail not shown here. Equal entries are not always repeated.

Test [1] concerns the target T1, SBD1-2(D417F) (Lactococcus lactis, UniProt Q9CES5, D417F).
T1 sequence (Q9CES5 27-484 D417F): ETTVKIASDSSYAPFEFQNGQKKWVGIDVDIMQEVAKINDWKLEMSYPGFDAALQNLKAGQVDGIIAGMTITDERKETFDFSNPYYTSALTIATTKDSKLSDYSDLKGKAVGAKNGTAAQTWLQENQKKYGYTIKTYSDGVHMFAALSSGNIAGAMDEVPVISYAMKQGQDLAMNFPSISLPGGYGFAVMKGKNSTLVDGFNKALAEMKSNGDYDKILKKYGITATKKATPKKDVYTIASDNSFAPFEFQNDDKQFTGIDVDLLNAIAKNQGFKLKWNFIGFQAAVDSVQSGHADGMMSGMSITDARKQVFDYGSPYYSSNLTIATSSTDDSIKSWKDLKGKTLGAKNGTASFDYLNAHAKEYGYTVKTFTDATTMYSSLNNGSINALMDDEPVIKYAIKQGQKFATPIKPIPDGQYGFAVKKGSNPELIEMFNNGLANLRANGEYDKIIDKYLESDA
The test can be described thus: Isothermal titration calorimetry, tandem variant with inactive SBD2. Particulars: binding to SBD1 in SBD1-2(D417F) (inactive SBD2); ITC.

The target in test [2] is T2, SBD1 in SBD1-Δ5-SBD2 (Lactococcus lactis, UniProt Q9CES5, DEL252-256).
T2 sequence (Q9CES5 27-484 DEL252-256): T1 sequence (Q9CES5 27-484 D417F)
The test can be described thus: Isothermal titration calorimetry, SBD1 site of linker deletion mutant. It counts as binding. Conditions: ITC. (ITC needs no label: the signal is the heat of the interaction.)

Test [3] has as its target T3, SBD1^A (SBD1(T159C/G87C)) (Lactococcus lactis, UniProt Q9CES5, T159C, form not given).
T3 sequence (Q9CES5 29-251 T159C): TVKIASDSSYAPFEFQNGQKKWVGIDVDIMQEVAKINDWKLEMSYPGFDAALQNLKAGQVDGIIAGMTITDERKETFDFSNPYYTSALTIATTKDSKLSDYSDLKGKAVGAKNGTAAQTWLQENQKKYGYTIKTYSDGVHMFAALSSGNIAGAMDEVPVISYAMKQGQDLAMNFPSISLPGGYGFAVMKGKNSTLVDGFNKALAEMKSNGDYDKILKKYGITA
The test can be described thus: smFRET / ALEX spectroscopy titration, single SBD1^A. The format is binding. Conditions: single domain SBD1^A, Alexa Fluor 555/647, read-out: apparent KD.

For test [4], the target named is T4, SBD1^A-2 (Lactococcus lactis, UniProt Q9CES5, T159C, form not given).
T4 sequence (Q9CES5 27-484 T159C): T1 sequence (Q9CES5 27-484 D417F)
The test can be described thus: smFRET / ALEX spectroscopy titration, tandem SBD1^A-2. The format is binding. Conditions: Alexa Fluor 555/647, read-out: apparent KD.

In test [5] the target is T5, SBD1(E184W)-2 (Lactococcus lactis, UniProt Q9CES5, E184W).
T5 sequence (Q9CES5 27-484 E184W): T1 sequence (Q9CES5 27-484 D417F)
The test can be described thus: Isothermal titration calorimetry, tandem variant with inactive SBD1. Conditions: binding to SBD2 in SBD1-2(E184W) (inactive SBD1); ITC.

For test [6], the target named is T6, SBD2 in SBD1-Δ5-SBD2 (Lactococcus lactis, UniProt Q9CES5, DEL252-256).
T6 sequence (Q9CES5 27-484 DEL252-256): T1 sequence (Q9CES5 27-484 D417F)
Kind of test: Isothermal titration calorimetry, SBD2 site of linker deletion mutant. Particulars: SBD1-Δ5-SBD2, high-affinity site (SBD2), no asparagine; ITC figure 6f. The format is binding.

Test [7] concerns the target T7, SBD2^C (SBD2(T369C/S451C)) (Lactococcus lactis, UniProt Q9CES5, S451C/T369C).
T7 sequence (Q9CES5 255-484 T369C/S451C): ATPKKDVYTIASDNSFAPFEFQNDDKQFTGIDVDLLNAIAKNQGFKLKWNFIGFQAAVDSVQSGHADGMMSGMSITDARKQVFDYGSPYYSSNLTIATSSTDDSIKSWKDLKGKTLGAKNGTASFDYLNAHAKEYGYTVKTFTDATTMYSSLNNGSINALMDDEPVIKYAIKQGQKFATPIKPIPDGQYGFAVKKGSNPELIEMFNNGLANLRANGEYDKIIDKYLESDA
Kind of test: smFRET / ALEX spectroscopy titration, single SBD2^C. The format is binding. Particulars: single domain SBD2^C, Alexa Fluor 555/647, read-out: apparent KD.

Test [8] concerns the target T8, SBD1-2^C (Lactococcus lactis, UniProt Q9CES5, S451C/T369C).
T8 sequence (Q9CES5 27-484 T369C/S451C): T1 sequence (Q9CES5 27-484 D417F)
The test can be described thus: smFRET / ALEX spectroscopy titration, tandem SBD1-2^C. Particulars: Alexa Fluor 555/647, read-out: apparent KD. It counts as binding.

For the compound `NC(=O)C[C@H](N)C(=O)O` [asparagine], the Kd in test [1] amounted to 0.4 ± 0.06 µM; in test [2], 0.06 µM; in test [3], 0.14 µM; in test [4], 0.075 µM.

Turning to `NC(=O)CC[C@H](N)C(=O)O` [glutamine], the Kd was 1.5 ± 0.8 µM in test [5]; 25.8 µM and 19 µM in test [2]; 1.7 µM in test [6]; 1.5 µM and ~1.5 µM in test [7]; 0.9 µM and ~0.9 µM in test [8]; 130 µM in test [3]. The Kd in test [4] worked out at 300 µM.

The record behind these values is article PMC8025302, “Structural and biophysical characterization of the tandem substrate-binding domains of the ABC importer GlnPQ” (Open Biology, 2021).
